Test results reported in ChEMBL document CHEMBL1126350, “Phosphonoethylphenylalanine derivatives as novel antagonists of non-NMDA ionotropic glutamate receptors” (Bioorg Med Chem Lett, 1992).

Assays:
Type in all cases: functional
Mus musculus [1] = assay: Compound was tested for its ability to inhibit pentylenetetrazole-induced seizures in male CF-1 mice by i.c.v. administration
Rattus norvegicus [2] = organism: Rattus norvegicus; assay: Inhibition of kainic acid (KA)-induced currents in rat brain mRNA-injected xenopus oocytes
Rattus norvegicus [3] = organism: Rattus norvegicus; assay: The compound was tested for its ability to inhibit AMPA-induced currents in rat brain mRNA-injected xenopus oocytes
Mus musculus [4] = assay: Compound was tested for its ability to inhibit pentylenetetrazole-induced seizures in male CF-1 mice by i.p. administration; conditions: ip
Rattus norvegicus [5] = organism: Rattus norvegicus; assay: Compound was tested against kainic acid-induced neuronal damage in rat striatum, as assessed by preventing reduction in glutamate decarboxylase GAD activity; parameters: scale not given: the % may be the effect or the level left
Rattus norvegicus [6] = organism: Rattus norvegicus; assay: Compound was tested against kainic acid-induced neuronal damage in rat striatum, as assessed by preventing reduction in choline acetyltransferase (ChAT) activity; parameters: scale not given: the % may be the effect or the level left

O=C(O)C1CN(CCCP(=O)(O)O)CCN1 (stereo not given)
ED50 (Mus musculus [1]): 0.15 nmol

NC(Cc1cc(Br)ccc1CCP(=O)(O)O)C(=O)O (stereo not given)
Ki (Rattus norvegicus [2]): 10 µM | Ki (Rattus norvegicus [3]): 61 µM

Cc1cc(C)c(CCP(=O)(O)O)c(C[C@H](N)C(=O)O)c1
ED50 (Mus musculus [1]): 0.3 nmol | ED50 (Mus musculus [4]): 111 mg/kg

Cc1ccc(CCP(=O)(O)O)c(C[C@H](N)C(=O)O)c1
ED50 (Mus musculus [1]): 0.58 nmol | ED50 (Mus musculus [4]): 124 mg/kg

NC(Cc1cc(C2CCCCC2)ccc1CCP(=O)(O)O)C(=O)O (stereo not given)
Ki (Rattus norvegicus [2]): 139 µM

Cc1ccc(CCP(=O)(O)O)c(CC(N)C(=O)O)c1 (stereo not given)
Ki (Rattus norvegicus [2]): 11 µM | Ki (Rattus norvegicus [3]): 13 µM

Cc1cccc(CCP(=O)(O)O)c1CC(N)C(=O)O (stereo not given)
Ki (Rattus norvegicus [2]): > 100 µM

NC(Cc1cc(Cl)ccc1CCP(=O)(O)O)C(=O)O (stereo not given)
Ki (Rattus norvegicus [2]): 15 µM | Ki (Rattus norvegicus [3]): 48 µM

CC(C)(C)c1ccc(CCP(=O)(O)O)c(CC(N)C(=O)O)c1 (stereo not given)
Ki (Rattus norvegicus [2]): 29 µM

Cc1cccc(CC(N)C(=O)O)c1CCP(=O)(O)O (stereo not given)
Ki (Rattus norvegicus [2]): > 100 µM

CCc1ccc(CCP(=O)(O)O)c(CC(N)C(=O)O)c1 (stereo not given)
Ki (Rattus norvegicus [2]): 17 µM | Ki (Rattus norvegicus [3]): 50 µM

Cc1ccc(CC(N)C(=O)O)c(CCP(=O)(O)O)c1 (stereo not given)
Ki (Rattus norvegicus [2]): > 100 µM

COc1ccc(CCP(=O)(O)O)c(CC(N)C(=O)O)c1 (stereo not given)
Ki (Rattus norvegicus [2]): 67 µM

NC(Cc1cccc(-c2ccccc2)c1CCP(=O)(O)O)C(=O)O (stereo not given)
Ki (Rattus norvegicus [2]): 83 µM

NC(Cc1cc(F)ccc1CCP(=O)(O)O)C(=O)O (stereo not given)
Ki (Rattus norvegicus [2]): 68 µM | Ki (Rattus norvegicus [3]): 167 µM

Cc1cc(C)c(CCP(=O)(O)O)c(CC(N)C(=O)O)c1 (stereo not given)
Ki (Rattus norvegicus [2]): 12 µM | Ki (Rattus norvegicus [3]): 39 µM

NC(Cc1cc(-c2ccccc2)ccc1CCP(=O)(O)O)C(=O)O (stereo not given)
Ki (Rattus norvegicus [2]): 76 µM

NC(Cc1cc(C(F)(F)F)ccc1CCP(=O)(O)O)C(=O)O (stereo not given)
Ki (Rattus norvegicus [2]): 10 µM

NC(Cc1cc(I)ccc1CCP(=O)(O)O)C(=O)O (stereo not given)
Ki (Rattus norvegicus [2]): 3.6 µM | Ki (Rattus norvegicus [3]): 16 µM

C=C(C)[C@H]1CN[C@H](C(=O)O)[C@H]1CC(=O)O [KAINIC ACID]
Activity (Rattus norvegicus [5]): 45% | Activity (Rattus norvegicus [6]): 32%
